Data as given in patent US7635779B2, “Oxy substituted flavones as antihyperglycemic and antidyslipidemic agents” (Council of Scientific & Industrial Research, priority 2004, dated 2009).
Values joined by “and” are separate entries in the source; they are usually repeats but may differ in a detail not shown here. Equal entries are not always repeated. Marks after values point to notes of the source that are not given here.

Legend:
[1] = tested on: sucrose loaded rat; assay: Sucrose loaded rat model (SLM), antihyperglycemic activity; format: in vivo; details: for inhibition in vivo at 100 mg/kg: Rattus norvegicus, po, 2 h, read-out: % Fall in blood glucose levels, SLM
Method: Male albino rats of Charles Foster/Wistar strain of average body weight 160±20 g were selected for this study. The blood glucose level of each animal was checked by glucometer using glucostrips (Boehringer Mannheim) after 16 h starvation. Animals showing blood glucose levels between 3.33 to 4.44 mM (60 to 80 mg/dl) were divided into groups of five to six animals in each. Animals of experimental group were administered suspension of the desired synthetic compound orally (made in 1.0% gum acacia) at a dose of 100-mg/kg-body weight. Animals of control group were given an equal amount of 1.0% gum acacia. A sucrose load (10.0 g/kg) was given to each animal orally exactly after 30 min post administration of the test sample/vehicle. Blood glucose profile of each rat was again determined at 30, 60, 90 and 120 min post administration of sucrose by glucometer. Food but not water was withheld from the cages during the course of experimentation. Quantitative glucose tolerance of each animal was calculated by Area Under Curve (AUC) method (Prism Software). Comparing the AUC of experimental and control groups determined the percentage antihyperglycemic activity. Statistical comparison was made by Dunnett's test.

[2] = tested on: streptozotocin-induced diabetic rats; assay: Sucrose-challenged streptozotocin-induced diabetic rats (STZ-S); format: in vivo, rat; details: for % Fall in blood glucose levels, STZ-S 5 h / % Fall in blood glucose levels, STZ-S 24 h: 100 mg/kg oral
Method: Male albino rats of Sprague Dawley strain of body weight 160+20 g were selected for this study. Streptozotocin (Sigma, USA) was dissolved in 100 mM citrate buffer pH 4.5 and calculated amount of the fresh solution was injected to overnight fasted rats (45 mg/kg) intraperitoneally. Blood glucose level was checked 48 h later by glucostrips and animals showing blood glucose values between 144 to 270 mg/dl (8 to 15 mM) were included in the experiment and termed diabetic. The diabetic animals were divided into groups consisting of five to six animals in each group. Animals of experimental groups were administered suspension of the desired test samples orally (made in 1.0% gum acacia) at a dose of 100-mg/kg-body weight. Animals of control group were given an equal amount of 1.0% gum acacia. A sucrose load of 2.5-g/kg body weight was given after 30 minutes of compound administration. After 30 minutes of post sucrose load blood glucose level was again checked by glucostrips at 30, 60, 90, 120, 180, 240, 300 min and at 24 h, respectively. Animals not found diabetic after 24 hours post treatment of the test sample were not considered and omitted from the calculations and termed as non-responders. […] Food but not water was withheld from the cages during the experimentation. Comparing the AUC of experimental and control groups determined the percent antihyperglycemic activity. Statistical comparison between groups was made by Student's ‘t’ test.
As depicted in the FIGURE, a dose response curve of 34 was obtained by administering different doses of test compound to streptozotocin-induced diabetic rats (Table 6). […]

[3] = tested on: db/db mice; assay: Antihyperglycemic activity in db/db mice; format: in vivo, mouse; details: for % Fall in blood glucose levels, 6 days: day 6; for % Fall in blood glucose levels, 10 days: day 10
Source text: The db/db mouse is a well-characterized model of type II diabetes. The background for the db/db mouse is the C57BL/Ks strain. The major deficiency of the C57BL/KsBom-db mouse (db/db) is lack of a functional leptin receptor. This leads to defective leptin signaling and a complete lack of feedback from leptin. […] The db/db mouse develops NIDDM from around week 10. The disease is stable until week 20, where destruction of pancreatic β-cells can be recognized clinically as decreasing levels of plasma insulin and very severe hyperglycemia. The male mice are more diabetic than female and will normally die earlier. The advantage of using male mice for experimental purposes is that the fluctuations in plasma parameters are less than in the females where the estrogen cycles affects the clinical diabetes mellitus. The optimal age of db/db mice used for experiments will be from week 12 to 18 when they have developed NIDDM with diabetic dyslipidemia but still have functional β-cells in the pancreas. C57BL/KsBom-db mice 12-18 weeks, 40-50 g bred in the animal house of CDRI, Lucknow. 10 male mice were used in the experiments. The mice were housed in groups of 5 individuals in a room controlled for temperature (23+2° C.) and 12/12 hours light/dark cycle (lights on at 6.00 am). Body weight was measured daily from day 1 to day 10. All animals had free access to fresh water and to normal chow except on the days of the postprandial protocol day 6 and during the overnight fast before the OGTT on day 10. Blood glucose was checked every morning up till day 5. On day 6 postprandial protocol was employed, in this method blood glucose was checked at −0.30 min and 0 h. Test compounds were given to the treatment group whereas control group received only gum acacia (1.0%); the blood glucose was again checked at 1, 2, 3, 4 and 6 h post test compound treatment. Finally on day 10 an oral glucose tolerance test (OGTT) was performed after an overnight fasting. Blood glucose was measured at −0.30 min and test drugs were fed, blood glucose was again measured at 0.0 min post treatment, at this juncture glucose solution was given at a dose of 3 gm/kg to all the groups including control group; the profile of blood glucose was checked at 30 min, 60 min, 90 min and 120 min post glucose administration. Quantitative glucose tolerance of each animal was calculated by Area Under Curve (AUC) method (Prism Software). Comparing the AUC of experimental and control groups determined the percentage antihyperglycemic activity. Statistical comparison was made by Dunnett's test.

SMILES	% Fall in blood glucose levels, SLM ([1]; 100 mg/kg oral, AUC vs control) [%]	Antihyperglycemic (glucose lowering) activity in words ([1]; SLM as well as STZ model)	% Fall in blood glucose levels, STZ-S 5 h [2]	% Fall in blood glucose levels, STZ-S 24 h [2]	% Fall in blood glucose levels, 6 days [3] [%]	% Fall in blood glucose levels, 10 days [3]	inhibition in vivo at 100 mg/kg [1] [%]	% Fall in blood glucose levels 5 h ([2]; Dose 25, 5 h) [%]	% Fall in blood glucose levels 24 h ([2]; Dose 25, 24 h) [%]	% Fall in blood glucose levels 5 h ([2]; Dose 50, 5 h) [%]	% Fall in blood glucose levels 24 h ([2]; Dose 50, 24 h) [%]	% Fall in blood glucose levels 5 h ([2]; Dose 100, 5 h) [%]	% Fall in blood glucose levels 24 h ([2]; Dose 100, 24 h) [%]	% Fall in blood glucose levels 5 h ([2]; Dose 150, 5 h) [%]	% Fall in blood glucose levels 24 h ([2]; Dose 150, 24 h) [%]	% Fall in blood glucose levels 5 h ([2]; Dose 200, 5 h) [%]	% Fall in blood glucose levels 24 h ([2]; Dose 200, 24 h) [%]	% Fall in blood glucose levels 5 h ([2]; Dose 250, 5 h) [%]	% Fall in blood glucose levels 24 h ([2]; Dose 250, 24 h) [%]	ED50 ([2]; Rattus norvegicus, STZ-S model, dose response) [mg/kg]
COc1cc(-c2cc(=O)c3ccc(OCCCOc4ccc(C=C5SC(=O)NC5=O)cc4)cc3o2)cc(OC)c1OC [Compound 65, 7-{3-[4-(thiazolidin-2,4-dione-5-ylidinemethyl)-phenoxy]-propoxy}-3′,4′,5′-trimethoxy-flavone]	29.30	significant and consistent glucose lowering activity	16.1%	11.0%	19.1	21.4%														
CC(C)(C)NCC(O)COc1ccc2c(=O)cc(-c3cc(OCc4ccccc4)cc(OCc4ccccc4)c3)oc2c1 (centres unmarked) [Compound 34, 7-(3-tert-Butylamino-2-hydroxy-propoxy)-3′,5′-dibenzyloxy-flavone]			21.6** %	28.7** %	26.4	57.1%	29.4	11.1	13.6	9.62	13.8	19.8	21.9	24.3	30.5	38.1	37.0	40.7	45.5	90
CC(C)NCC(O)COc1ccc2c(=O)cc(-c3cc(O)cc(O)c3)oc2c1 (centres unmarked) [Compound 49, 3′,5′-Dihydroxy-7-(2-hydroxy-3-iso-propylamino-propoxy)-flavone]			26.9** %	13.2* %	9.38	20.8% and 20.5%	29													
